From patent publication US20100240709A1, “Sulfoximine Derivatives as p38 MAP Kinase Inhibitors” (priority 2005, published 2010)

These compounds were tested against p38 MAP kinase (Homo sapiens, UniProt Q16539) (assay: p-38 MAPK Enzyme assay (in vitro ELISA, ATF-2 substrate)). Conditions: ELISA detection of phosphorylated ATF-2.
Assay type: biochemical
From the text: The compounds were screened using an in vitro ELISA assay for p38 MAP kinase activity. Activated p38 MAP kinase during the course of its biological function phosphorylates its substrates. The assay was based on the detection of a phosphorylated p38 MAP kinase substrate using ATF-2 as the biological substrate. More the activity of the p38 MAP kinase inhibitor in the reaction mixture less will be the amount of active p38 MAP kinase available to phosphorylate ATF-2. So, lower OD value will indicate the higher inhibition of p38 MAP kinase by the specific p38 MAP kinase inhibitor. The quantitation of phosphorylated ATF-2 at varying concentrations of p38 MAP kinase inhibitor was used to determine the IC50 by fitting the results to a logistic dose-response program (Graphpad Prism, CA). IC50 was defined as the concentration of compound required to achieve 50% inhibition of p38 MAP kinase activity.

p38 MAP kinase, sequence (Q16539 whole entry): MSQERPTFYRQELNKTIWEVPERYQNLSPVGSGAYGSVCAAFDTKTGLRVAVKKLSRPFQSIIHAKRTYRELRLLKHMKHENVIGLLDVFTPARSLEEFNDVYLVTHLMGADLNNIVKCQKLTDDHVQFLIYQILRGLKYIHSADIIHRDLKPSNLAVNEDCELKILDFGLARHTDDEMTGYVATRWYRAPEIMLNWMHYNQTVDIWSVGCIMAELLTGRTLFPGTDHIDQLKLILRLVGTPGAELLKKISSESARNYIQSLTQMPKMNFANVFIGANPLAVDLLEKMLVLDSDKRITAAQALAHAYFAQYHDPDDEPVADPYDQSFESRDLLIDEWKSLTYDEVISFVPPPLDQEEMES

| SMILES | IC50 [µM] |
| --- | --- |
| CCc1nc(-c2ccc(F)cc2)c(-c2ccnc(N=S(C)(=O)c3ccc(F)cc3)c2)s1 (stereo not drawn) [Example 41, S-Methyl-S-4-fluoro-phenyl-N-[4-(2-ethyl-4-(4-fluoro-phenyl)-1,3-thiazol-5-yl)-pyridine-2-yl]-sulfoximine] | 1.4 |
| CCc1nc(-c2cccc(C)c2)c(-c2ccnc(N=S(=O)(c3ccccc3)C3CCCC3)c2)s1 (stereo not drawn) [Example 1, S-Cyclopentyl-S-phenyl-N-[4-(2-ethyl-4-(3-methylphenyl)-1,3-thiazol-5-yl)-pyridine-2-yl]-sulfoximine] | 0.78 |
| CCc1nc(-c2ccc(F)c(F)c2)c(-c2ccnc(N=S(C)(=O)c3ccc(F)cc3)c2)s1 (stereo not drawn) [Example 59, S-Methyl-S-(4-fluorophenyl)-N-{-4-[2-ethyl-4-(3,4-difluorophenyl)-thiazol-5-yl]pyridin-2-yl}-sulfoximine] | 6.6 |
| CCc1nc(-c2cccc(F)c2)c(-c2ccnc(N=S(C)(=O)c3ccccc3)c2)s1 (stereo not drawn) [Example 50, S-Methyl-S-phenyl-N-[4-(2-ethyl-4-(3-fluoro-phenyl)-1,3-thiazol-5-yl)-pyridine-2-yl]-sulfoximine] | 4.4 |
| CCc1nc(-c2ccccc2)c(-c2ccnc(N=S(C)(=O)c3ccc(OC)cc3)c2)s1 (stereo not drawn) [Example 23] | 6.6 |
| CCc1nc(-c2ccc(F)cc2)c(-c2ccnc(N=S(C)(=O)c3ccccc3)c2)s1 (single isomer, unassigned; (+)) [Example 40, (+)-S-Methyl-S-phenyl-N-[4-(2-ethyl-4-(4-fluoro-phenyl)-1,3-thiazol-5-yl)-pyridine-2-yl]-sulfoximine] | 2.7 |
| CCc1nc(-c2cccc(C(F)(F)F)c2)c(-c2ccnc(N=S(C)(=O)c3ccccc3)c2)s1 (stereo not drawn) [Example 54, S-Methyl-S-phenyl-N-{4-[2-ethyl-4-(3-trifluoromethylphenyl)-thiazol-5-yl]-pyridin-2-yl}sulfoximine] | 4.8 |
| CC(C)S(=O)(=Nc1cc(-c2scnc2-c2ccc(F)cc2)ccn1)c1ccccc1 (stereo not drawn) [Example 74] | 7.5 |
| CCc1nc(-c2cccc(C)c2)c(-c2ccnc(N=S(C)(=O)c3ccccc3)c2)s1 (single isomer, unassigned; (-)) [Example 6, (−)-S-methyl-S-phenyl-N-[4-(2-ethyl-4-(3-methylphenyl)-1,3-thiazol-5-yl)-pyridine-2-yl]-sulfoximine] | 0.15 |
| CCc1nc(-c2cccc(C)c2)c(-c2ccnc(N=S(=O)(c3ccccc3)C(C)C)c2)s1 (stereo not drawn) [Example 13, S-Isopropyl-S-phenyl-N-[4-(2-ethyl-4-(3-methylphenyl)-1,3-thiazol-5-yl)-pyridine-2-yl]-sulfoximine] | 1.3 |
| CCc1nc(-c2cccc(C)c2)c(-c2ccnc(N=S(C)(=O)c3ccc(C)cc3)c2)s1 (stereo not drawn) [Example 15, S-Methyl-S-4-methylphenyl-N-[4-(2-ethyl-4-(3-methylphenyl)-1,3-thiazol-5-yl)-pyridine-2-yl]-sulfoximine] | 4.9 |
| CCc1nc(-c2cccc3ccccc23)c(-c2ccnc(N=S(C)(=O)c3ccccc3)c2)s1 (stereo not drawn) [Example 53, S-Methyl-S-phenyl-N-{4-[2-ethyl-4-napthalene-1-yl-thiazol-5-yl]-pyridin-2-yl}-sulfoximine] | 1.9 |
| CCc1nc(-c2cccc(C)c2)c(-c2ccnc(N=S(=O)(CC(C)C)c3ccccc3)c2)s1 (stereo not drawn) [Example 8, S-Isobutyl-S-phenyl-N-[4-(2-ethyl-4-m-tolyl-thiazol-5-yl)-pyridin-2-yl]-sulfoximine] | 55.4 |
| CCc1nc(-c2cccc(C)c2)c(-c2ccnc(N=S(C)(=O)c3cccc(C)c3)c2)s1 (stereo not drawn) [Example 10, S-(3-Methylphenyl)-S-methyl-N-[4-(2-ethyl-4-m-tolyl-thiazol-5-yl)-pyridin-2-yl]-sulfoximine] | 11.1 |
| CCc1nc(-c2cccc(C)c2)c(-c2ccnc(N=S(=O)(CC)c3ccccc3)c2)s1 (stereo not drawn) [Example 14, S-Ethyl-S-Phenyl-N-[4-(2-ethyl-4-(3-methylphenyl)-1,3-thiazol-5-yl)-pyridine-2-yl]-sulfoximine] | 6.2 |
| CS(=O)(=Nc1cc(-c2scnc2-c2cccc(F)c2)ccn1)c1ccccc1 (stereo not drawn) [Example 71] | 25.5 |
| CCc1nc(-c2ccc(F)cc2)c(-c2ccnc(N=S(=O)(c3ccccc3)c3ccccc3)c2)s1 [Example 45, S,S-Diphenyl-N-[4-(2-ethyl-4-(4-fluorophenyl)-thiazol-5-yl)-pyridin-2-yl]-sulfoximine] | 1.35 |
| CCc1nc(-c2cccc(C)c2)c(-c2ccnc(N=S(=O)(C3CCCCC3)C3CCCCC3)c2)s1 [Example 2, S,S-dicyclohexyl-N-[4-(2-ethyl-4-m-tolyl-thiazol-5-yl)-pyridine-2-yl]sulfoximine] | 1.2 |
| CCc1nc(-c2ccccc2)c(-c2ccnc(N=S(=O)(c3ccccc3)c3ccccc3)c2)s1 [Example 32, S,S-diphenyl-N-[4-(2-ethyl-4-phenyl-thiazol-5-yl)-pyridin-2-yl]-sulfoximine] | 10 |
| CCc1nc(-c2ccc(C)cc2)c(-c2ccnc(N=S(C)(=O)c3ccccc3)c2)s1 (stereo not drawn) [Example 64, S-Methyl-S-phenyl-N-{4-[2-ethyl-4-p-tolyl-thiazol-5-yl]-pyridin-2-yl}-sulfoximine] | 9.4 |
| CCc1nc(-c2ccccc2)c(-c2ccnc(N=S(C)(=O)c3ccccc3)c2)s1 (single isomer, unassigned; (+)) [Example 21] | 2.7 |
| CCc1nc(-c2ccc(F)c(F)c2)c(-c2ccnc(N=S(C)(=O)c3ccccc3)c2)s1 (stereo not drawn) [Example 58, S-Methyl-S-phenyl-N-{4-[2-ethyl-4-(3,4-difluorophenyl)-thiazol-5-yl]pyridin-2-yl}-sulfoximine] | 1 |
| Cc1cccc(-c2nc(-c3ccc([S+](C)[O-])cc3)sc2-c2ccnc(N=S(C)(=O)c3ccccc3)c2)c1 (stereo not drawn) [Example 57, S-Methyl-S-phenyl-N-{-4-[2-(4-methylsulfinyl-phenyl)-4-m-tolyl-thiazol-5-yl]-pyridin-2-yl}-sulfoximine] | 6.5 |
| CCc1nc(-c2cccc(C)c2)c(-c2ccnc(N=S(C)(=O)c3ccccc3C)c2)s1 (stereo not drawn) [Example 12, S-(2-Methylphenyl)-S-methyl-N-[4-(2-ethyl-4-m-tolyl-thiazol-5-yl)-pyridin-2-yl]-sulfoximine] | 6.95 |
| CCc1nc(-c2ccccc2)c(-c2ccnc(N=S(C)(=O)c3ccc(F)cc3)c2)s1 (stereo not drawn) [Example 27] | 3.1 |

The remaining compounds from weak to strong by IC50, led by results:

| IC50 [µM] | SMILES |
| --- | --- |
| 12.6 | O=S(=Nc1cc(-c2scnc2-c2ccc(F)cc2)ccn1)(c1ccccc1)C1CCCC1 (stereo not drawn) [Example 75] |
| 10 | CCc1nc(-c2cccc(C)c2)c(-c2ccnc(N=S(C)(=O)c3ccc(F)c(Cl)c3)c2)s1 (stereo not drawn) [Example 17, S-Methyl-S-(3-chloro-4-fluoro-phenyl)-N-[4-(2-ethyl-4-(3-methylphenyl)-1,3-thiazol-5-yl)-pyridine-2-yl]-sulfoximine] |
| 7.1 | CCc1nc(-c2ccc(F)cc2)c(-c2ccnc(N=S(=O)(c3ccccc3)C3CCCC3)c2)s1 (stereo not drawn) [Example 42, S-Cyclopentyl-S-Phenyl-N-[4-(2-ethyl-4-(4-fluorophenyl)-1,3-thiazol-5-yl)-pyridine-2-yl]-sulfoximine] |
| 6.8 | CCc1nc(-c2cccc(C)c2)c(-c2ccnc(N=S3(=O)CCCC3)c2)s1 [Example 19, 1-Imino-N-[4-(2-ethyl-4-(3-methylphenyl)-1,3-thiazol-5-yl)-pyridine-2-yl]-tetrahydro-thiophene-1-oxide] |
| 5.93 | CCc1nc(-c2ccc(F)cc2)c(-c2ccnc(N=S(=O)(c3ccccc3)C(C)C)c2)s1 (single isomer, unassigned; (+)) [Example 37, (+)-S-Isopropyl-S-phenyl-N-{4-[2-ethyl-4-(4-fluoro-phenyl)-thiazol-5-yl]-pyridin-2-yl}-sulfoximine] |
| 5.01 | CCc1nc(-c2ccccc2)c(-c2ccnc(N=S(=O)(c3ccccc3)C(C)C)c2)s1 (stereo not drawn) [Example 22] |
| 4.6 | CCc1nc(-c2ccc(F)cc2)c(-c2ccnc(N=S(C)(=O)c3ccccc3)c2)s1 (stereo not drawn) [Example 39, S-Methyl-S-phenyl-N-[4-(2-ethyl-4-(4-fluoro-phenyl)-1,3-thiazol-5-yl)-pyridine-2-yl]-sulfoximine] |
| 3.8 | CCc1nc(-c2cccc(C)c2)c(-c2ccnc(N=S(C)(=O)c3ccc(F)cc3)c2)s1 (stereo not drawn) [Example 7, S-Methyl-S-(4-fluorophenyl)-N-[4-(2-ethyl-4-(3-methylphenyl)-1,3-thiazol-5-yl)-pyridine-2-yl]-sulfoximine] |
| 2.6 | CCc1nc(-c2ccccc2)c(-c2ccnc(N=S(=O)(c3ccccc3)C3CCCC3)c2)s1 (single isomer, unassigned; (-)) [Example 29] |
| 2 | CCc1nc(-c2cccc(C)c2)c(-c2ccnc(N=S(=O)(c3ccccc3)c3ccccc3)c2)s1 [Example 11, S,S-Diphenyl-N-[4-(2-ethyl-4-m-tolyl-thiazol-5-yl)-pyridin-2-yl]-sulfoximine] |
| 1.9 | CCCCS(=O)(CCCC)=Nc1cc(-c2sc(CC)nc2-c2cccc(C)c2)ccn1 [Example 16, Di-n-butyl-N-[4-(2-ethyl-4-(3-methylphenyl)-1,3-thiazol-5-yl)-pyridine-2-yl]-sulfoximine] |
| 1.1 | CCc1nc(-c2cccc(C)c2)c(-c2ccnc(N=S(C)(=O)c3ccc(OC)cc3)c2)s1 (stereo not drawn) [Example 3, S-Methyl-S-4-methoxyphenyl-N-[4-(2-ethyl-4-m-tolyl-thiazol-5-yl)-pyridine-2-yl]-sulfoximine] |
| 0.8 | CCc1nc(-c2ccccc2)c(-c2ccnc(N=S(C)(=O)c3ccccc3)c2)s1 (single isomer, unassigned; (-)) [Example 20] |
| 0.17 | CCc1nc(-c2ccc(F)cc2)c(-c2ccnc(N=S(=O)(CC)c3ccccc3)c2)s1 (stereo not drawn) [Example 38, S-Ethyl-S-phenyl-N-{4-[2-ethyl-4-(4-fluoro-phenyl)-thiazol-5-yl]-pyridin-2-yl}-sulfoximine] |
